# According to publication PMC10967822, “Antimicrobial Indole-3-Carboxamido-Polyamine Conjugates Target Bacterial Membranes and Are Antibiotic Potentiators” (Biomolecules, 2024):
# Values joined by “and” are separate entries in the source; they are usually repeats but may differ in a detail not shown here. Identical values can stand only once. Like-named read-outs stand apart in the source and are kept apart here. Marks after values point to notes of the source that are not given here.
# Experiments:
# [1] = tested on: S. aureus ATCC 25923; assay: MIC, broth dilution, S. aureus; assay type: cell-based, Staphylococcus aureus
# [2] = tested on: MRSA ATCC 43300; assay: MIC, broth microdilution (CO-ADD), MRSA; assay type: cell-based, methicillin-resistant S. aureus; conditions: Staphylococcus aureus; MRSA ATCC 43300; top dose 32 µg/mL; read-out: MIC MRSA
# [3] = tested on: P. aeruginosa ATCC 27853; assay: MIC, broth dilution, P. aeruginosa; assay type: cell-based, Pseudomonas aeruginosa; conditions: Pseudomonas aeruginosa, ATCC27853
# [4] = tested on: E. coli ATCC 25922; assay: MIC, broth dilution, E. coli; assay type: cell-based, Escherichia coli; conditions: Escherichia coli, ATCC25922; E. coli ATCC 25922, 18 h
# [5] = tested on: A. baumannii ATCC 19606; assay: MIC, broth microdilution (CO-ADD), A. baumannii; assay type: cell-based, Acinetobacter baumannii; conditions: Acinetobacter baumannii, ATCC19606, top dose 32 µg/mL
# [6] = tested on: C. albicans ATCC 90028; assay: Antifungal MIC (CO-ADD), C. albicans; assay type: cell-based; conditions: Candida albicans, ATCC90028, top dose 32 µg/mL
# Procedure, shortened: (§1)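 MIC for C. neoformans determined by OD570–600 following a further 3 h with resazurin (0.006% final), whereas C. albicans was read directly at OD530. Both grown static in YNB broth at 2.5 × 10^3 CFU/mL final inoculum, 35 °C for 36 h, from colonies cultured on YPD agar 3 days at 30 °C.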
# [7] = tested on: C. neoformans ATCC 208821; assay: Antifungal MIC (CO-ADD), C. neoformans; assay type: cell-based; conditions: Cryptococcus neoformans, ATCC208821, top dose 32 µg/mL
# Procedure, shortened: as §1
# [8] = tested on: P. aeruginosa ATCC 27853; assay: Doxycycline potentiation against P. aeruginosa; assay type: cell-based, Pseudomonas aeruginosa; conditions: doxycycline at 2 µg/mL (4.5 µM); for Dox/Pa fold-change (intrinsic MIC / combination MIC): P. aeruginosa ATCC 27853; for Dox/Pa: concentration required to restore doxycycline activity (combination MIC): P. aeruginosa ATCC 27853, mean n = 3
# Excerpt: (§2) These measurements were independently repeated in triplicate.
# [9] = tested on: E. coli ATCC 25922; assay: Erythromycin potentiation against E. coli; assay type: cell-based, Escherichia coli; conditions: erythromycin at 2 µg/mL (2.7 µM); for Erythro/Ec fold-change (intrinsic MIC / combination MIC): E. coli; for Erythro/Ec: concentration required to restore erythromycin activity (combination MIC): mean n = 3
# Excerpt: as §2
# [10] = Cytotoxicity assay (resazurin); assay type: cell-based; conditions: human, HEK293 cells, mean n = 2
# [11] = tested on: human red blood cells; assay: Hemolytic assay; assay type: cell-based; conditions: 10% hemolytic activity, mean n = 2
# Procedure, shortened: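 Compounds were applied to saline-washed human red blood cells at 0.5 × 10^8 cells/mL, 37 °C, 1 h. Lysis was measured by supernatant absorbance at 405 nm, and concentrations giving 10% and 50% haemolysis were obtained by variable-slope curve fitting.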
# [12] = tested on: S. aureus ATCC 25923; assay: Real-time growth curves, S. aureus; assay type: cell-based, Staphylococcus aureus; conditions: for Concentration at which bacterial growth resumed after 2 h: S. aureus ATCC 25923, real-time growth
# Procedure: The solutions of the compound at the concentrations of 2, 4, and 16 µg/mL were tested each in triplicate against S. aureus ATCC 25923. Typically, in a 96-well plate were placed 10 µL of 40, 80, and 320 µg/mL stock solutions of compound, as well as 190 µL of 5 × 10^5 CFU/mL of the selected bacterial suspension in brain heart infusion (BHI) broth. Positive controls containing only 200 µL of 5 × 10^5 CFU/mL of the bacterial suspension in BHI and negative controls containing only 200 µL of BHI broth were added. The plate was incubated at 37 °C in a TECAN Spark Reader (Roche Diagnostic, Meylan, France) and the real-time bacterial growth was followed by OD590 nm measurements every 20 min for 18 h.
# [13] = tested on: P. aeruginosa PAO1; assay: Real-time growth curves, P. aeruginosa; assay type: cell-based, Pseudomonas aeruginosa
# [14] = tested on: S. aureus ATCC 25923; assay: ATP efflux (membrane disruption), S. aureus; assay type: cell-based, Staphylococcus aureus; conditions: S. aureus ATCC 25923, single dose 100 µg/mL, relative to squalamine
# Procedure: (§3) A solution of the compound was prepared in twice-distilled water at a fixed concentration of 100 μg/mL. The different Gram-positive suspensions were prepared in MH II broth and were incubated at 37 °C. Then, 90 µL of each bacterial suspension was added to 10 µL of the compound solution and shaken for 20 s in the incubator at 37 °C. Subsequently, 50 µL of Luceferin–Luciferase reagent (Yelen, Marseille, France) was added to the mixture, and the luminescent signal was quantified with an Infinite M200 microplate reader (Tecan, Männedorf, Switzerland) for 6 readings spaced 30 s apart. The ATP concentration was quantified by internal sample addition. Squalamine (100 µg/mL) was used as the positive control to quantify the maximum level of ATP efflux and water as the negative control. This assay was performed in three independent experiments.
# [15] = tested on: MRSA; assay: ATP efflux (membrane disruption), MRSA; assay type: cell-based, methicillin-resistant S. aureus; conditions: single dose 100 µg/mL, relative to squalamine
# Procedure: as §3
# [16] = tested on: P. aeruginosa PAO1; assay: Nitrocefin hydrolysis assay (outer membrane permeabilization); assay type: cell-based, Pseudomonas aeruginosa; conditions: P. aeruginosa PAO1, top dose 128 µg/mL
# Procedure: Outer membrane permeabilization was measured using nitrocefin as a chromogenic substrate of periplasmic β-lactamase. A total of 10 milliliters of MH broth were inoculated with 0.1 mL of an overnight culture of PAO1 bacteria and grown at 37 °C until the OD600 reached 0.5. The remaining steps were performed at room temperature. The cells were recovered by centrifugation (4000 rpm for 20 min) and washed once in 20 mM potassium phosphate buffer (pH 7.2) containing MgCl2 (1 mM). After a second centrifugation, the pellet was resuspended and adjusted to OD600 of 0.5. Then, 50 µL of the desired compound was added to 100 µL of the cell suspension to obtain a final concentration varying from 3.9 µM to 250 µM. A total of 50 microliters of nitrocefin was then added to obtain a final concentration of 50 µg/mL. Nitrocefin hydrolysis was monitored spectrophotometrically by measuring the increase in absorbance at 490 nm. The assays were performed in 96-well plates using a M200 Pro Tecan (Tecan, Männedorf, Switzerland) spectrophotometer.
# [17] = tested on: K. pneumoniae ATCC 700603; assay: MIC, broth microdilution (CO-ADD), K. pneumoniae; conditions: top dose 32 µg/mL
# [18] = tested on: P. aeruginosa ATCC 27853; conditions: cited from earlier work
# [19] = tested on: P. aeruginosa ATCC 27853; conditions: cited from earlier work; remark: listed apart in the source
# [20] = tested on: S. aureus ATCC 25923; conditions: ref Cadelis et al. [13]; cited from earlier work
# [21] = tested on: MRSA ATCC 43300; design: method as in Cadelis et al. [13]; conditions: ref Cadelis et al. [13]; cited from earlier work
# [22] = tested on: E. coli ATCC 25922; design: method as in Cadelis et al. [13]; conditions: ref Cadelis et al. [13]; cited from earlier work
# [23] = tested on: K. pneumoniae ATCC 700603; design: method as in Cadelis et al. [13]; conditions: ref Cadelis et al. [13]; cited from earlier work
# [24] = tested on: A. baumannii ATCC 19606; design: method as in Cadelis et al. [13]; conditions: ref Cadelis et al. [13]; cited from earlier work
# [25] = tested on: C. albicans ATCC 90028; design: method as in Cadelis et al. [13]; conditions: ref Cadelis et al. [13]; cited from earlier work
# [26] = tested on: C. neoformans ATCC 208821; design: method as in Cadelis et al. [13]; conditions: ref Cadelis et al. [13]; cited from earlier work
# [27] = tested on: HEK293 human embryonic kidney cells; design: method as in Cadelis et al. [13]; conditions: ref Cadelis et al. [13], read-out: Cytotoxicity IC50; cited from earlier work
# [28] = tested on: human red blood cells; conditions: cited from earlier work
# [29] = Staphylococcus aureus, ATCC25923, S. aureus ATCC 25923, 18 h, read-out: MIC Sa
# [30] = P. aeruginosa ATCC 27853, 18 h, read-out: MIC Pa
Structure (SMILES),"MIC [1, 29] [µM]",MIC [2] [µM],"MIC [3, 30] [µM]",MIC [4] [µM],MIC [5] [µM],MIC [6] [µM],MIC [7] [µM],Dox/Pa fold-change (intrinsic MIC / combination MIC) [8] [fold],Dox/Pa: concentration required to restore doxycycline activity (combination MIC) [8] [µM],Erythro/Ec fold-change (intrinsic MIC / combination MIC) [9] [fold],Erythro/Ec: concentration required to restore erythromycin activity (combination MIC) [9] [µM],IC50 at 20 h [10] [µM],Hemolysis HC10 [11] [µM],Concentration at which bacterial growth resumed after 2 h [12],Concentration at which bacterial growth resumed after 4 h [13],ATP release (membrane disruption) [14],ATP release (membrane disruption) [15],Outer membrane disruption (nitrocefin hydrolysis) [16],MIC Kp [17] [µM],other results
O=C(NCCCNCCCCCCNCCCNC(=O)c1c[nH]c2ccc(Br)cc12)c1c[nH]c2ccc(Br)cc12 [Compound 13b],2.2,≤ 0.28,71,6.92,≤ 0.28,> 35,≤ 0.28,21,3.46,1,6.92,> 35,>35,1 μg/mL and 1.1 μM,35.5 μM and 32 μg/mL,more potent of the two compounds,more potent of the two compounds,able to disrupt the outer membrane only at the top dose,>35,"MIC ([1]; S. aureus ATCC 25923, 18 h, read-out: MIC Sa): 2.2 µM; MIC ([1]; Staphylococcus aureus, ATCC25923, read-out: MIC S. aureus (microdilution)): 2 µg/mL; MIC ([3]; read-out: MIC P. aeruginosa (microdilution)): 64 µg/mL; Concentrations giving complete inhibition in real-time growth curves ([12]; S. aureus ATCC 25923, 18 h): 32 to 2 μg/mL and 35.5 to 2.2 μM"
"O=C(Cc1c[nH]c2ccc(Br)cc12)NCCCNCCCCCCCNCCCNC(=O)Cc1c[nH]c2ccc(Br)cc12 [Compound 19, reference compound]",–,–,–,–,–,–,–,–,–,–,–,–,–,8.5 μM and 8 μg/mL,128 μg/mL and 135.5 μM,noticeably less active than the positive control squalamine,noticeably less active than the positive control squalamine,inactive at all test doses,–,MIC P. aeruginosa [18]: 100 μg/mL and 106 μM; Combined MIC with doxycycline against P. aeruginosa ([19]; doxycycline potentiation): 6.6 µM; Fold enhancement with doxycycline against P. aeruginosa ([19]; doxycycline potentiation): 18 fold
"O=C(NCCCNCCCCNCCCNC(=O)c1c[nH]c2ccc(Br)cc12)c1c[nH]c2ccc(Br)cc12 [Compound 3, α,ω-di-(5-bromoindole-3-carboxamido)spermine]",–,–,–,–,–,–,–,–,–,–,100,–,–,–,–,–,–,–,–,"MIC Sa [20]: 4.8 ^i µM; MIC MRSA [21]: 12.4 ^i µM; MIC Pa ([18]; ref Cadelis et al. [13]): 200 ^i µM; MIC Ec [22]: 200 ^i µM; MIC Kp [23]: >50 ^i µM; MIC Ab [24]: >50 ^i µM; MIC Ca [25]: 49.5 ^i µM; MIC Cn [26]: 12.4 ^i µM; Dox/Pa: concentration required to restore doxycycline activity (combination MIC) ([19]; doxycycline at 2 µg/mL (4.5 µM), P. aeruginosa ATCC 27853, ref Cadelis et al. [13]): 3.125 µM; Dox/Pa fold-change (intrinsic MIC / combination MIC) ([19]; doxycycline at 2 µg/mL, P. aeruginosa ATCC 27853, ref Cadelis et al. [13]): 64 fold; IC50 [27]: > 50 µM; Hemolysis HC10 [28]: >50 ^c µM"
COc1cccc2c(C(=O)NCCCNCCCCCCCNCCCNC(=O)c3c[nH]c4c(OC)cccc34)c[nH]c12.O=C(O)C(F)(F)F.O=C(O)C(F)(F)F [Compound 17c],122,2.44,> 244,244,> 39,> 39,≤ 0.31,> 8,30.5,1,244,> 39,>39,–,–,–,–,–,>39,–
Cc1ccc2[nH]cc(C(=O)NCCCNCCCCCCCNCCCNC(=O)c3c[nH]c4ccc(C)cc34)c2c1 [Compound 15c],63.5,≤ 0.32,> 254,254,> 41,> 41,≤ 0.32,> 4,63.5,4,63.5,> 41,>41,–,–,–,–,–,>41,–
Cc1ccc2[nH]cc(C(=O)NCCCNCCCCCCCCCCCCNCCCNC(=O)c3c[nH]c4ccc(C)cc34)c2c1.O=C(O)C(F)(F)F.O=C(O)C(F)(F)F [Compound 15f],3.65,≤ 0.29,58.3,29.2,≤ 0.29,≤ 0.29,≤ 0.29,0.5,117,1,29.2,0.55,>37,–,–,–,–,–,>37.3,–
